Data taken from USRE38629E1, “Solid oral dosage form comprising a combination of metformin and glibenclamide” (Merck Sante, priority 1998, dated 2004).
In brackets after ≈: the same amount, converted by molar mass.

Columns and labels:
[1] = Glibenclamide particle size distribution; format: physicochemical; conditions: glibenclamide batch
Protocol: In-vivo bioavailability tests were performed with tablets prepared as disclosed in example 2, using two batches of glibenclamide. The two batches have the following 10 to 90% particle size range:
The distribution of the particle size of batches A and B are illustrated in FIG. 1.
Data from the studies with metformin hydrochloride/glibenclamide tablets formulated with glibenclamide of different particle size characteristics allowed the development of a correlation between drug particle size and the in vivo performance.

[2] = in water at 25° C.; cited from earlier work

10 to 90% particle size range [1]	SMILES	solubility [2] [µg/mL]
3.47-38.08 μm	COc1ccc(Cl)cc1C(=O)NCCc1ccc(S(=O)(=O)NC(=O)NC2CCCCC2)cc1 [batch A, glibenclamide]	
15.63-91.6 μm	COc1ccc(Cl)cc1C(=O)NCCc1ccc(S(=O)(=O)NC(=O)NC2CCCCC2)cc1 [batch B, glibenclamide]	
	COc1ccc(Cl)cc1C(=O)NCCc1ccc(S(=O)(=O)NC(=O)NC2CCCCC2)cc1 [glibenclamide]	100 (≈ 202 µM)
